Results taken from patent US10053465B2 (Incyte Corporation, priority 2015, dated 2018).
Read-outs that look alike come from different tables or passages of the source.

Legend:
JAK2 = JAK2 (Homo sapiens (Human), UniProt O60674); conditions: ratio of IC50 at 1 mM ATP; cited from earlier work
Tyro3 = Tyro3 (Homo sapiens (Human), UniProt Q06418); test: biochemical; conditions: read-out: Tyro3IC50
Description: (§1) 0.1 ul test compounds dissolved in DMSO were transferred from compound plates to white 384-well assay plates (Greiner [sequence] plates). […] The plate was protected from light and incubated at room temperature for 60 min.

c-Mer [1] = molecular target: T1, c-Mer (Homo sapiens (Human), UniProt Q12866); test: biochemical
Description: as §1

Phospho-Axl = Phospho-Axl (Homo sapiens (Human), UniProt P30530); test: biochemical;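 further: test system is recombinant Axl protein that was first autophosphorylated with ATP and MgCl2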
Phospho-Axl, sequence (P30530 26-894): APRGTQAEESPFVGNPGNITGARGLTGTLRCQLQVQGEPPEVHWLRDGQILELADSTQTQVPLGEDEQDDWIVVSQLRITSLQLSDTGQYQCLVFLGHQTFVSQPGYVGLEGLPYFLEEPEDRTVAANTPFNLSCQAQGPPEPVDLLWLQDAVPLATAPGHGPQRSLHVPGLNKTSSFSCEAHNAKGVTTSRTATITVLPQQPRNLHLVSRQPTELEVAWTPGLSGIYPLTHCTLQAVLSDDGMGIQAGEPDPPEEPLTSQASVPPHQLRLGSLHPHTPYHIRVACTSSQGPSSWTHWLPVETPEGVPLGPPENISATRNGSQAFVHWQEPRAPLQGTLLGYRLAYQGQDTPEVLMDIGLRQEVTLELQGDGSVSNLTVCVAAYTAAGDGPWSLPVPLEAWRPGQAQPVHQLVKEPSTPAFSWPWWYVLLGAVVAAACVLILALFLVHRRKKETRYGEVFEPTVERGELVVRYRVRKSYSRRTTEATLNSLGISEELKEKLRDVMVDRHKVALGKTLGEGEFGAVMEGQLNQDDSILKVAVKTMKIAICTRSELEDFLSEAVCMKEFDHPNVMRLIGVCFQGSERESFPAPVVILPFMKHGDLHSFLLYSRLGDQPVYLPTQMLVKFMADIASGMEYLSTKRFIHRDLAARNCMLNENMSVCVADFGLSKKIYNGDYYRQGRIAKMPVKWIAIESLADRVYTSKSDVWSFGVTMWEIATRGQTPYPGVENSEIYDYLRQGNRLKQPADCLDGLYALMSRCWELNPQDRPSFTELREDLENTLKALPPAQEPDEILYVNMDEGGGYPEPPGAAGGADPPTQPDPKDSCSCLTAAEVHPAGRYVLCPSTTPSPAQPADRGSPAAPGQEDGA
Description: Autophosphorylation of Axl was carried out by incubating the recombinant Axl protein (Life Technologies, PV4275) in buffer containing 50 mM Tris, pH7.5, 0.2 mg/ml Axl, 5 mM ATP, 20 mM MgCl2 and 2 mM DTT at room temperature for 1 hour.
as §1

c-Mer [2] = molecular target: T1, c-Mer; conditions: read-out: c-Mer IC50; HTRF, 60 min room temperature
Description: as §1

NK cells = conditions: Paolino et al., 2014; cited from earlier work
[3] = tested on: tumor models with different histologies; conditions: Paolino et al., 2014; cited from earlier work

Tyro3, sequence (Q06418 41-890): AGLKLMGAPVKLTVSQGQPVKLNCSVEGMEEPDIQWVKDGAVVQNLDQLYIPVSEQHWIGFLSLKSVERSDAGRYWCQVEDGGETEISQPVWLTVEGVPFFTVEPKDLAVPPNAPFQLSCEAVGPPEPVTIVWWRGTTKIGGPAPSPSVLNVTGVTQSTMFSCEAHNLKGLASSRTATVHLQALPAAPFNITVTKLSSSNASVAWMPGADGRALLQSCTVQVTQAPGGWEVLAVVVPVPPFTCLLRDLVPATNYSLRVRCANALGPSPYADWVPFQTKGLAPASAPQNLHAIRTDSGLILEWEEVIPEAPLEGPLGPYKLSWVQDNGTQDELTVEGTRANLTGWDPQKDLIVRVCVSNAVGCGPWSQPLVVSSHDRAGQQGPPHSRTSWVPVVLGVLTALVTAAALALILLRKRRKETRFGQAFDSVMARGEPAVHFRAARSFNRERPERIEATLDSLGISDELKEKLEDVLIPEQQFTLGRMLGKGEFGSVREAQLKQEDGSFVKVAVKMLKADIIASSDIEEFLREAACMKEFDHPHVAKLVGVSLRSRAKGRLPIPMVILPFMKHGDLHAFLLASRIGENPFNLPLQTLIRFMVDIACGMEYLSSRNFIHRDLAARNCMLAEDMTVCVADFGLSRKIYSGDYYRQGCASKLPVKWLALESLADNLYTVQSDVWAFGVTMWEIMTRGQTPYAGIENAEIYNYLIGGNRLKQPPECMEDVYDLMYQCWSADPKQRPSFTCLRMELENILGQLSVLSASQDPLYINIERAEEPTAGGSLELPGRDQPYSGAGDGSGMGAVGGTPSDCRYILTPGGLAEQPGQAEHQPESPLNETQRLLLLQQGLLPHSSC
T1 sequence (Q12866 21-999): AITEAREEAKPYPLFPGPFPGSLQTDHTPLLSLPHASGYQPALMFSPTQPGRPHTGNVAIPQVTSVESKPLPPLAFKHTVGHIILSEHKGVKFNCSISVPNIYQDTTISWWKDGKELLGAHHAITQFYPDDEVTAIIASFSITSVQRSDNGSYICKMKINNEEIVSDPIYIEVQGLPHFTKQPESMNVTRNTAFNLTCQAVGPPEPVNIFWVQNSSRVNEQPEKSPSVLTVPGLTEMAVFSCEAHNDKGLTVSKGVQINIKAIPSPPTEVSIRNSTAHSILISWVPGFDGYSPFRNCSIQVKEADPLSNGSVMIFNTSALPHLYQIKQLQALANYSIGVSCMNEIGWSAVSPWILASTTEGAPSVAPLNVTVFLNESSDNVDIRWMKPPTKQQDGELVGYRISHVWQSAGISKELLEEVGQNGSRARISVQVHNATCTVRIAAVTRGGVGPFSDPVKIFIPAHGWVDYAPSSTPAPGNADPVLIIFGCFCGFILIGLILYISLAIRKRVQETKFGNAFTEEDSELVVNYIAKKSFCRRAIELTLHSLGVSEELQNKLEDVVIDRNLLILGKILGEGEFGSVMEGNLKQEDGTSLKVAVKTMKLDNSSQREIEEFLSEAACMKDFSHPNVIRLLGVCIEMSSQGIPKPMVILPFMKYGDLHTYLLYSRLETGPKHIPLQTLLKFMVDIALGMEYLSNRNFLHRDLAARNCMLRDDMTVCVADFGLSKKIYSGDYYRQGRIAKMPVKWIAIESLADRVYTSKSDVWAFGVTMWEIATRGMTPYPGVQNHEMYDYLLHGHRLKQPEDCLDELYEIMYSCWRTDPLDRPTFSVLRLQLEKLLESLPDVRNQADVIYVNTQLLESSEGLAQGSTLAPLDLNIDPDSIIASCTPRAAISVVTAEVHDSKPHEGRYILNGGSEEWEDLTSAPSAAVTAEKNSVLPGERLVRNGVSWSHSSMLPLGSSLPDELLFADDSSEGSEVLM
JAK2, sequence (O60674 whole entry, species assumed): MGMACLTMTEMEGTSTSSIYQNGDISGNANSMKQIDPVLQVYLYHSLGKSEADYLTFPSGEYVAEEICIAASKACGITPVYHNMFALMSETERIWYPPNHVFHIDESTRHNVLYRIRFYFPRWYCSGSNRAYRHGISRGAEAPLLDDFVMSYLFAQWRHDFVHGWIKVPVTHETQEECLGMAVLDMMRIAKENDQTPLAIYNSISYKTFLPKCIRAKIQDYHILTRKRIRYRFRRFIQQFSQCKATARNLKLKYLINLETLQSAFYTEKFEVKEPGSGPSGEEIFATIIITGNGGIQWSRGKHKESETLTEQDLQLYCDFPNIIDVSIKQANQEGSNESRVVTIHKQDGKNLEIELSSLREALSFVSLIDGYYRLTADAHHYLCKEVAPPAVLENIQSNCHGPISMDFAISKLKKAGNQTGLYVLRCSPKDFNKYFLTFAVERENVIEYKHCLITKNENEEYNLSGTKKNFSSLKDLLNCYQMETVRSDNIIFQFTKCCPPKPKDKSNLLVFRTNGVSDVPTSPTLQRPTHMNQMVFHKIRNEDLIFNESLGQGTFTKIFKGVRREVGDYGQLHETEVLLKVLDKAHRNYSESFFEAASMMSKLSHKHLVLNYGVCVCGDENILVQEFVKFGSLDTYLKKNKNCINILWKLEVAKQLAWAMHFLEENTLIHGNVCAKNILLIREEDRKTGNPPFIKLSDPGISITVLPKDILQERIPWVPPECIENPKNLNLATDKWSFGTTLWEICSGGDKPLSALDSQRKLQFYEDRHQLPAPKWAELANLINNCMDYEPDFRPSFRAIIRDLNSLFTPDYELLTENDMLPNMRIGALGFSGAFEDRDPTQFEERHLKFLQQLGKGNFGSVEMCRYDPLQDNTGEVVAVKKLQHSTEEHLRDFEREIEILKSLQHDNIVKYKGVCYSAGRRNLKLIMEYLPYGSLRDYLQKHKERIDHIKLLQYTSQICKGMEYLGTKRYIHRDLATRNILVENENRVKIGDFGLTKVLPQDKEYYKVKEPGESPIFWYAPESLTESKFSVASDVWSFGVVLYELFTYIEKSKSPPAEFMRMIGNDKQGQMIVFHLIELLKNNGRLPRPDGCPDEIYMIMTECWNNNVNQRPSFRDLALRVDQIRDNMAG

Row | SMILES | IC50 (Tyro3; HTRF, 60 min room temperature) [nM] | IC50 (Phospho-Axl; HTRF, 60 min room temperature) [nM] | IC50 (Tyro3) [nM] | IC50 (c-Mer [2]) [nM] | also measured
1 | N#CCC1(n2cc(-c3ncnc4[nH]ccc34)cn2)CN(C2CCN(C(=O)c3ccnc(C(F)(F)F)n3)CC2)C1 [Compound 9, [3-[4-(7H-pyrrolo[2,3-d]pyrimidin-4-yl)-1H-pyrazol-1-yl]-1-(1-{[2-(trifluoromethyl)pyrimidin-4-yl]carbonyl}piperidin-4-yl)azetidin-3-yl]acetonitrile] |  |  |  |  | JAK2/JAK1 (JAK2): >10
2 | Cn1ccc(C(=O)NCC2(c3cccc(-c4ncnc5[nH]ccc45)c3)Cc3ccccc3C2)n1 [Example 29] | > 3000 | 1000 to 3000 |  |  | IC50 (c-Mer [1]): 1000 to 3000 nM
3 | Cc1ncoc1C(=O)NCC1(c2cccc(-c3ncnc4[nH]ccc34)c2)Cc2ccccc2C1 [Example 30] | > 3000 | 500 to 1000 |  |  | IC50 (c-Mer [1]): 500 to 1000 nM
4 | Cn1nccc1C(=O)NCC1(c2cccc(-c3ncnc4[nH]ccc34)c2)Cc2ccccc2C1 [Example 32, 1-Methyl-N-({2-[3-(7H-pyrrolo[2,3-d]pyrimidin-4-yl)phenyl]-2,3-dihydro-1H-inden-2-yl}methyl)-1H-pyrazole-5-carboxamide] |  | > 3000 | > 3000 | > 3000 | 
5 | NCC1(c2cccc(-c3ncnc4[nH]ccc34)c2)Cc2ccc(CN3CC(O)C3)cc2C1 (stereo not drawn) [Example 48, 1-((2-(3-(7H-Pyrrolo[2,3-d]pyrimidin-4-yl)phenyl)-2-(aminomethyl)-2,3-dihydro-1H-inden-5-yl)methyl)azetidin-3-ol] | 1000 to 3000 | > 3000 |  | > 3000 | 
6 | N#Cc1ccc2c(c1)CC(CN)(c1cccc(-c3ncnc4[nH]ccc34)c1)C2 (stereo not drawn) [Example 49, 2-(Aminomethyl)-2-[3-(7H-pyrrolo[2,3-d]pyrimidin-4-yl)phenyl]indane-5-carbonitrile] | 1000 to 3000 | < 500 |  | < 500 | 
7 | NCC1(c2cccc(-c3ncnc4[nH]ccc34)c2)Cc2ccc(N3CC(F)C3)cc2C1 (stereo not drawn) [Example 56, 1-{5-(3-Fluoroazetidin-1-yl)-2-[3-(7H-pyrrolo[2,3-d]pyrimidin-4-yl)phenyl]-2,3-dihydro-1H-inden-2-yl}methanamine] | 1000 to 3000 | < 500 |  | < 500 | 
8 | CCn1cnc(-c2ccc3c(c2)CC(CN)(c2cccc(-c4ncnc5[nH]ccc45)c2)C3)c1 (stereo not drawn) [Example 76, 1-{5-(1-Ethyl-1H-imidazol-4-yl)-2-[3-(7H-pyrrolo[2,3-d]pyrimidin-4-yl)phenyl]-2,3-dihydro-1H-inden-2-yl}methanamine] | 500 to 1000 |  |  | < 500 | IC50 (Phospho-Axl): < 500 nM
9 | CCCCNc1nc(-c2cccc(C3(CN)Cc4ccccc4C3)c2)c2cc[nH]c2n1 [Example 80, 4-{3-[2-(Aminomethyl)-2,3-dihydro-1H-inden-2-yl]phenyl}-N-butyl-7H-pyrrolo[2,3-d]pyrimidin-2-amine] |  | < 500 | < 500 | < 500 | 
10 | CNc1nc(-c2cccc(C3(CN)Cc4ccccc4C3)c2)c2cc[nH]c2n1 [Example 86, 4-{3-[2-(Aminomethyl)-2,3-dihydro-1H-inden-2-yl]phenyl}-N-methyl-7H-pyrrolo[2,3-d]pyrimidin-2-amine] | 1000 to 3000 | < 500 |  | < 500 | 
11 | CCNc1nc(-c2cccc(C3(CN)Cc4ccccc4C3)c2)c2cc[nH]c2n1 [Example 87, 4-{3-[2-(Aminomethyl)-2,3-dihydro-1H-inden-2-yl]phenyl}-N-ethyl-7H-pyrrolo[2,3-d]pyrimidin-2-amine] | 1000 to 3000 | < 500 |  | < 500 | 
12 | CC(C)Nc1nc(-c2cccc(C3(CN)Cc4ccccc4C3)c2)c2cc[nH]c2n1 [Example 88, 4-{3-[2-(Aminomethyl)-2,3-dihydro-1H-inden-2-yl]phenyl}-N-isopropyl-7H-pyrrolo[2,3-d]pyrimidin-2-amine] |  | < 500 | > 3000 | < 500 | 
13 | NCC1(c2cccc(-c3nc(NC4CCC4)nc4[nH]ccc34)c2)Cc2ccccc2C1 [Example 89, 4-{3-[2-(Aminomethyl)-2,3-dihydro-1H-inden-2-yl]phenyl}-N-cyclobutyl-7H-pyrrolo[2,3-d]pyrimidin-2-amine] |  | < 500 | < 500 | < 500 | 
14 | NCC1(c2cccc(-c3nc(NC4CCCC4)nc4[nH]ccc34)c2)Cc2ccccc2C1 [Example 90, 4-{3-[2-(Aminomethyl)-2,3-dihydro-1H-inden-2-yl]phenyl}-N-cyclopentyl-7H-pyrrolo[2,3-d]pyrimidin-2-amine] | 500 to 1000 | < 500 |  | < 500 | 
15 | NCC1(c2cccc(-c3nc(NC4CCCCC4)nc4[nH]ccc34)c2)Cc2ccccc2C1 [Example 91, 4-{3-[2-(Aminomethyl)-2,3-dihydro-1H-inden-2-yl]phenyl}-N-cyclohexyl-7H-pyrrolo[2,3-d]pyrimidin-2-amine] | 1000 to 3000 | < 500 |  | < 500 | 
16 | Cn1cc(Nc2nc(-c3ccnc(C4(CN)Cc5ccccc5C4)c3)c3cc[nH]c3n2)cn1 [Example 94, 4-{2-[2-(Aminomethyl)-2,3-dihydro-1H-inden-2-yl]pyridin-4-yl}-N-(1-methyl-1H-pyrazol-4-yl)-7H-pyrrolo[2,3-d]pyrimidin-2-amine] |  | < 500 | < 500 | < 500 | 
17 | NCC1(c2cc(-c3nc(Nc4cccc(CN5CCOCC5)c4)nc4[nH]ccc34)ccn2)Cc2ccccc2C1 [Example 95, 4-{2-[2-(Aminomethyl)-2,3-dihydro-1H-inden-2-yl]pyridin-4-yl}-N-[3-(morpholin-4-ylmethyl)phenyl]-7H-pyrrolo[2,3-d]pyrimidin-2-amine] |  | < 500 | < 500 | < 500 | 
18 | COc1cnc2[nH]ccc2c1-c1ccnc(C2(CN)Cc3ccccc3C2)c1 [Example 96, 1-{2-[4-(5-Methoxy-1H-pyrrolo[2,3-b]pyridin-4-yl)pyridin-2-yl]-2,3-dihydro-1H-inden-2-yl}methanamine] |  |  | < 500 | < 500 | IC50 (Phospho-Axl): < 500 nM
19 | NCC1(c2cc(-c3ccnc4[nH]ncc34)ccn2)Cc2ccccc2C1 [Example 97, 1-{2-[4-(1H-Pyrazolo[3,4-b]pyridin-4-yl)pyridin-2-yl]-2,3-dihydro-1H-inden-2-yl}methanamine] | 1000 to 3000 | < 500 |  |  | IC50 (c-Mer [1]): < 500 nM
20 | CCOc1cn(-c2ccc(F)cc2C)nc1C(=O)Nc1ccc(Oc2ccnc3cc(OC)c(OC)cc23)c(F)c1 [LDC1267] |  |  |  |  | NK cell activation (NK cells): activates NK cells; metastasis in tumor models [3]: blocks metastasis in tumor models with different histologies
